Biological target: bsLDH (Geobacillus stearothermophilus, UniProt P00344)
Assay type: binding

Chain of bsLDH (P00344 whole entry): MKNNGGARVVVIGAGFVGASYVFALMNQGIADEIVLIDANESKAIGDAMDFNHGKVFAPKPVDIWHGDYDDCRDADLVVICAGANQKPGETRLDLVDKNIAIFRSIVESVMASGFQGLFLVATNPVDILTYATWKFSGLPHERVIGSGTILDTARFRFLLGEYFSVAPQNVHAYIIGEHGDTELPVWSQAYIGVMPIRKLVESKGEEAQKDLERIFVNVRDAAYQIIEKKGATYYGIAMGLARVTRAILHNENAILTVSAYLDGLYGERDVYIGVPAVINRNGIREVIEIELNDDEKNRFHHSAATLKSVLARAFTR

SMILES: NC(=O)C1=CN([C@@H]2O[C@H](COP(=O)(O)OP(=O)(O)OC[C@H]3O[C@@H](n4cnc5c(N)ncnc54)[C@H](O)[C@@H]3O)[C@@H](O)[C@H]2O)C=CC1 [NADH]
- Kd: 1300 ± 700 nM
